Data on three compounds can be found in patent US20260378560A1, “APPROACHES TO DESIGNING AND PERFORMING COMPRESSED BIOLOGICAL EXPERIMENTS AND SYSTEMS FOR IMPLEMENTING THE SAME” (EXVIVO LABS INC., priority 2023, published 2026).

The subject of one test is JURKAT. Description: ATP-based luminescence cell viability (CellTiter Glo), drug response score, JURKAT. The settings on record: Target compression, 6 Pick 3 pools. The source says: (§1) As part of a screen, a drug could be screened at different concentrations ranging from a lowest concentration to a highest concentration. In such a scenario, multiple data structures may be obtained by the screening platform 210. […] With these multiple data structures, the analysis module 218 can generate a dose-response curve that describes the magnitude of the response of the biological target, as a function of exposure to different concentrations of the drug. Further, the analysis module 218 can calculate a metric that is indicative of the response of the biological target. In the event that the biological target is one of multiple biological targets that are introduced to the pools of drugs, the metric can be used by the screening platform 210 to better understand the relative magnitude of responses. One example of a metric is drug-response score (“DRS”). DRS can be calculated as a continuous function of multiple parameters of the non-linear dose-response curve, including the slope at the half-maximal effective concentration (also called “EC50”) and the top and bottom asymptotes of the dose-response curve. DRS can be calculated as follows: […]
(§2) where y is a continuous function of the variable dose x, a is the maximal response (i.e., the top asymptote of the curve), b is the slope of the curve, c is the IC50 (i.e., half-maximal inhibitory concentration), and d is the minimal response (i.e., the bottom asymptote of the curve). Other examples of metrics include those output by sigmoidal and Hill slide functions that, like DRS, incorporate multiple aspects of the dose-response curve into a continuous function.
(§3) Total cell viability was measured for each cancer cell line using an Adenosine TriPhosphate (“ATP”) assay, and more specifically an ATP-based luminescence assay (i.e., CellTiter Glo). Each cancer drug was screened at multiple concentrations ranging from one nanomolar (nM) to ten micromolar (UM) in order to generate a dose-response curve and calculate a drug response score (“DRS”) for each cancer cell line. The DRS was calculated as a continuous function of multiple parameters of the non-linear dose-response curve, including the slope at the half-maximal effective concentration (also called “EC50”) and the top and bottom asymptotes of the dose-response curve. […] After total cell viability was measured and DRS was calculated, the DRS of each cancer cell line in the pool was deconvolved for each cancer drug.
(§4) DRS for these anchor cell lines are bolded and italicized. Anchors can be identified based on frequency of the cell lines in pools with high DRS versus low DRS. At a high level, an anchor is predicted to be the cell line with the lowest individual DRS. In order to deconvolute individual cell line DRS values from pool DRS values, the anchor can start with an assumed DRS value of zero. Each pool can then be expressed as a polynomial of variables (cell lines in the pool) and constants (DRS value of the pool). The DRS value of each cell line can then be solved for using the anchor value and overlapping polynomial expressions. When multiple values are calculated for the final target solved from the polynomials, then the anchor has a non-zero value that can be determined based on the difference in the calculated value of the final target.
(§5) Each pool represented a co-culture of three cell lines (“Target Compression”).
`N#Cc1ccnc(N2C(=O)CC[C@H]2C(=O)N(c2cncc(F)c2)[C@H](C(=O)NC2CC(F)(F)C2)c2ccccc2Cl)c1` [Ivosidenib] had a DRS from deconvolution of 0.84.
The same measure, in the same setting: then `Cc1[nH]c2ccccc2c1CCNCc1ccc(/C=C/C(=O)NO)cc1` [Panobinostat], with 14.37; and `COc1c(OCCCN2CCOCC2)ccc2c1N=C(NC(=O)c1cnc(N)nc1)N1CCN=C21` [Copanlisib], with 0.00.

The same test, now with this note: Target compression, 7 Pick 3 pools.
`N#Cc1ccnc(N2C(=O)CC[C@H]2C(=O)N(c2cncc(F)c2)[C@H](C(=O)NC2CC(F)(F)C2)c2ccccc2Cl)c1` [Ivosidenib]: the DRS from deconvolution was 0.70.
`Cc1[nH]c2ccccc2c1CCNCc1ccc(/C=C/C(=O)NO)cc1` [Panobinostat]: the DRS from deconvolution is listed as 13.23.
The same measure, in the same setting: then `COc1c(OCCCN2CCOCC2)ccc2c1N=C(NC(=O)c1cnc(N)nc1)N1CCN=C21` [Copanlisib], with 2.30.

The test system of another test is MOLT-4. The test is described as follows: ATP-based luminescence cell viability (CellTiter Glo), drug response score, MOLT-4. The settings on record: MOLT-4, screened individually (Compress: None).
Excerpt: as §1, §2
Total cell viability was measured for each cancer cell line using an Adenosine TriPhosphate (“ATP”) assay, and more specifically an ATP-based luminescence assay (i.e., CellTiter Glo). […] The DRS was calculated as a continuous function of multiple parameters of the non-linear dose-response curve, including the slope at the half-maximal effective concentration (also called “EC50”) and the top and bottom asymptotes of the dose-response curve. […] After total cell viability was measured and DRS was calculated, the DRS of each cancer cell line in the pool was deconvolved for each cancer drug.
DRS for these anchor cell lines are bolded and italicized. […] Each pool can then be expressed as a polynomial of variables (cell lines in the pool) and constants (DRS value of the pool). […] When multiple values are calculated for the final target solved from the polynomials, then the anchor has a non-zero value that can be determined based on the difference in the calculated value of the final target. […]
A general note: ATP-based viability assays read luminescence as a measure of living cells.
As to `N#Cc1ccnc(N2C(=O)CC[C@H]2C(=O)N(c2cncc(F)c2)[C@H](C(=O)NC2CC(F)(F)C2)c2ccccc2Cl)c1` [Ivosidenib], the “drug response score (DRS)” value worked out at 0.20.
On the same count and under the same terms, then `Cc1[nH]c2ccccc2c1CCNCc1ccc(/C=C/C(=O)NO)cc1` [Panobinostat], with 15.10; and `COc1c(OCCCN2CCOCC2)ccc2c1N=C(NC(=O)c1cnc(N)nc1)N1CCN=C21` [Copanlisib], with 9.44.

The next test deals with CCRF-HSB2. The test is described as follows: ATP-based luminescence cell viability (CellTiter Glo), drug response score, CCRF-HSB2. The settings on record: CCRF-HSB2, Sample compression, 5 Pick 3 pools.
Excerpt: as §1, §2, §3, §4, §5
In the case of `N#Cc1ccnc(N2C(=O)CC[C@H]2C(=O)N(c2cncc(F)c2)[C@H](C(=O)NC2CC(F)(F)C2)c2ccccc2Cl)c1` [Ivosidenib], the DRS from deconvolution is on record as 1.52.
In turn, `Cc1[nH]c2ccccc2c1CCNCc1ccc(/C=C/C(=O)NO)cc1` [Panobinostat] registered a DRS from deconvolution of 18.63.
Still for that read-out and setting: then `COc1c(OCCCN2CCOCC2)ccc2c1N=C(NC(=O)c1cnc(N)nc1)N1CCN=C21` [Copanlisib], with 7.35.

The same test, now with this note: CCRF-HSB2, Target compression, 5 Pick 3 pools.
For `N#Cc1ccnc(N2C(=O)CC[C@H]2C(=O)N(c2cncc(F)c2)[C@H](C(=O)NC2CC(F)(F)C2)c2ccccc2Cl)c1` [Ivosidenib], the DRS from deconvolution came to 1.74.
On the same count and under the same terms, with `Cc1[nH]c2ccccc2c1CCNCc1ccc(/C=C/C(=O)NO)cc1` [Panobinostat] the figure was 19.75; with `COc1c(OCCCN2CCOCC2)ccc2c1N=C(NC(=O)c1cnc(N)nc1)N1CCN=C21` [Copanlisib], 7.82.

The same test, now with this note: CCRF-HSB2, Target compression, 6 Pick 3 pools.
In turn, `N#Cc1ccnc(N2C(=O)CC[C@H]2C(=O)N(c2cncc(F)c2)[C@H](C(=O)NC2CC(F)(F)C2)c2ccccc2Cl)c1` [Ivosidenib] came in with a DRS from deconvolution of 1.53.
Same read-out and setting: with `Cc1[nH]c2ccccc2c1CCNCc1ccc(/C=C/C(=O)NO)cc1` [Panobinostat] the figure was 17.30.
On the same count and under the same terms, with `COc1c(OCCCN2CCOCC2)ccc2c1N=C(NC(=O)c1cnc(N)nc1)N1CCN=C21` [Copanlisib] the figure was 7.97.

Staying with this test, now noted: CCRF-HSB2, Target compression, 7 Pick 3 pools.
`N#Cc1ccnc(N2C(=O)CC[C@H]2C(=O)N(c2cncc(F)c2)[C@H](C(=O)NC2CC(F)(F)C2)c2ccccc2Cl)c1` [Ivosidenib]: the DRS from deconvolution is 1.61.
In turn, `Cc1[nH]c2ccccc2c1CCNCc1ccc(/C=C/C(=O)NO)cc1` [Panobinostat] showed a DRS from deconvolution of 17.26.
The compound `COc1c(OCCCN2CCOCC2)ccc2c1N=C(NC(=O)c1cnc(N)nc1)N1CCN=C21` [Copanlisib] registered a DRS from deconvolution of 7.10.

Another test relates to MOLT-4. Description: Cell viability (CellTiter Glo), library of cancer drugs, individual or sample compression with randomized (alphabetical) pools, MOLT-4. In kind it is cell-based. The settings on record: MOLT-4, None (measured individually). A digest of the protocol: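 Cells cultured with each drug individually at 1 nM–10 μM; viability by ATP luminescence (CellTiter Glo) to build dose-response curves and DRS. Samples read singly or pooled alphabetically (each drug in 3 of 7 pools), with pooled DRS recovered by additivity-based SUM deconvolution.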
`N#Cc1ccnc(N2C(=O)CC[C@H]2C(=O)N(c2cncc(F)c2)[C@H](C(=O)NC2CC(F)(F)C2)c2ccccc2Cl)c1` [Ivosidenib]: the DRS came out at 0.11.
The same measure, in the same setting: then `Cc1[nH]c2ccccc2c1CCNCc1ccc(/C=C/C(=O)NO)cc1` [Panobinostat], with 15.70.
In turn, `COc1c(OCCCN2CCOCC2)ccc2c1N=C(NC(=O)c1cnc(N)nc1)N1CCN=C21` [Copanlisib] showed a DRS of 9.01.

The same test, now with this note: MOLT-4, Samples, 7 Pick 3 randomized (alphabetical) sample pools.
As for `N#Cc1ccnc(N2C(=O)CC[C@H]2C(=O)N(c2cncc(F)c2)[C@H](C(=O)NC2CC(F)(F)C2)c2ccccc2Cl)c1` [Ivosidenib], the DRS from deconvolution is listed as 0.00.
Same read-out and setting: then `Cc1[nH]c2ccccc2c1CCNCc1ccc(/C=C/C(=O)NO)cc1` [Panobinostat], with 16.56; and `COc1c(OCCCN2CCOCC2)ccc2c1N=C(NC(=O)c1cnc(N)nc1)N1CCN=C21` [Copanlisib], with 9.65.

For another test, the system named is JURKAT. The test is described as follows: ATP-based luminescence cell viability (CellTiter Glo), drug response score, JURKAT. The settings on record: screened individually (Compress: None).
In the case of `N#Cc1ccnc(N2C(=O)CC[C@H]2C(=O)N(c2cncc(F)c2)[C@H](C(=O)NC2CC(F)(F)C2)c2ccccc2Cl)c1` [Ivosidenib], the “drug response score (DRS)” value was found to be 0.70.
As to `Cc1[nH]c2ccccc2c1CCNCc1ccc(/C=C/C(=O)NO)cc1` [Panobinostat], the “drug response score (DRS)” value is reported as 13.20.
Same read-out and setting: with `COc1c(OCCCN2CCOCC2)ccc2c1N=C(NC(=O)c1cnc(N)nc1)N1CCN=C21` [Copanlisib] the figure was 1.34.

A further test has as its system REH. The test is described as follows: ATP-based luminescence cell viability (CellTiter Glo), drug response score, REH. Set-up: scale not given here. The settings on record: Target compression, 5 Pick 3 pools.
Excerpt: as §1, §2, §3, §4, §5
`N#Cc1ccnc(N2C(=O)CC[C@H]2C(=O)N(c2cncc(F)c2)[C@H](C(=O)NC2CC(F)(F)C2)c2ccccc2Cl)c1` [Ivosidenib] gave a DRS from deconvolution of 0.53.
Same read-out and setting: then `Cc1[nH]c2ccccc2c1CCNCc1ccc(/C=C/C(=O)NO)cc1` [Panobinostat], with 12.12; and `COc1c(OCCCN2CCOCC2)ccc2c1N=C(NC(=O)c1cnc(N)nc1)N1CCN=C21` [Copanlisib], with 12.96.

The same test, now with this note: Target compression, 6 Pick 3 pools.
Regarding `N#Cc1ccnc(N2C(=O)CC[C@H]2C(=O)N(c2cncc(F)c2)[C@H](C(=O)NC2CC(F)(F)C2)c2ccccc2Cl)c1` [Ivosidenib], the DRS from deconvolution came out at 0.58.
Still for that read-out and setting: with `Cc1[nH]c2ccccc2c1CCNCc1ccc(/C=C/C(=O)NO)cc1` [Panobinostat] the figure was 12.62; with `COc1c(OCCCN2CCOCC2)ccc2c1N=C(NC(=O)c1cnc(N)nc1)N1CCN=C21` [Copanlisib], 13.28.

Still in this test, the particulars now being: Target compression, 7 Pick 3 pools.
Compound `N#Cc1ccnc(N2C(=O)CC[C@H]2C(=O)N(c2cncc(F)c2)[C@H](C(=O)NC2CC(F)(F)C2)c2ccccc2Cl)c1` [Ivosidenib] returned a DRS from deconvolution of 0.49.
With `Cc1[nH]c2ccccc2c1CCNCc1ccc(/C=C/C(=O)NO)cc1` [Panobinostat], the DRS from deconvolution was determined as 12.90.
`COc1c(OCCCN2CCOCC2)ccc2c1N=C(NC(=O)c1cnc(N)nc1)N1CCN=C21` [Copanlisib] registered a DRS from deconvolution of 12.09.
